Here are results for eleven molecules from ChEMBL document CHEMBL1201862, “PubChem BioAssay data set” (2004).

Some test systems named below: 786-0; A549; CCRF-CEM; HCT-15; HT-29; M14; MOLT-4; NCI-H226; NCI-H460; OVCAR-3; RPMI-8226; SK-MEL-2; SK-MEL-5; SNB-75; SW-620; TK-10; U-251; UACC-257; SK-OV-3; UACC-62.
Common to all, as to test: NCI-60 cell line screen, 48 h

Each structure is given as a SMILES string.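 Briefly, cells in 96-well plates were exposed to five compound concentrations for 48 h, and endpoints were estimated by linear interpolation. The concentration for 50% growth inhibition is given as GI50.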 Activity calls are given as the source filed them. Cut-off read from the data, not from the text of the source: active = GI50 up to about 1.1 µM and inactive = higher.

As for `CCOc1cc(C=O)ccc1O` [ETHYL VANILLIN], the GI50 was > 100 µM (inactive) with 786-0; > 100 µM (inactive) in the test with A549; > 10 µM (inactive) with CCRF-CEM; over 100 µM in the test with HCT-15; > 100 µM (inactive) in the test on HT-29; > 100 µM (inactive) in the test with M14. Moreover, the GI50 in the test on MOLT-4, in the test on NCI-H226, in the test on NCI-H460, in the test on OVCAR-3, with RPMI-8226 and in the test with SK-MEL-2 was > 100 µM (inactive) throughout. The GI50 with SK-MEL-5 is > 100 µM (inactive); with SNB-75 it was 95.1 µM (inactive); in the test on SW-620, > 100 µM (inactive); in the test with TK-10 it was > 100 µM (inactive); in the test on U-251 it was > 100 µM (inactive); in the test with UACC-257 it was > 100 µM (inactive).

On to `COc1cc(OC)nc(-n2c(N)c(C(=O)O)c3ccc([N+](=O)[O-])cc3c2=O)n1`, for which the GI50 is > 100 µM (inactive) in the test on 786-0; > 100 µM (inactive) in the test with A549; 63.1 µM (inactive) in the test with CCRF-CEM; over 100 µM with HCT-15; > 100 µM (inactive) with HT-29; > 100 µM (inactive) in the test on M14. Moreover, the GI50 with MOLT-4, in the test with NCI-H226, in the test with NCI-H460, in the test on OVCAR-3, with RPMI-8226 and in the test on SK-MEL-2 was > 100 µM (inactive) in each case. The GI50 in the test with SK-MEL-5 was > 100 µM (inactive); with SK-OV-3, > 100 µM (inactive); in the test with SNB-75, > 100 µM (inactive); in the test with SW-620 it was 88.1 µM (inactive); with U-251, > 100 µM (inactive); in the test on UACC-62, > 100 µM (inactive).

For the molecule `COc1ccc(/C=C2/SC(c3ccccc3)N(NC(=O)CCCCCCCCC(=O)NN3C(=O)/C(=C\c4ccc(OC)c(OC)c4)SC3c3ccccc3)C2=O)cc1OC` (stereo not drawn), the GI50 is 19.6 µM (inactive) in the test with 786-0; > 100 µM (inactive) in the test on A549; 55.2 µM in the test with HCT-15; 71.8 µM (inactive) in the test with HT-29; > 100 µM (inactive) with M14; 19.7 µM (inactive) in the test on MOLT-4. Besides, the GI50 in the test on NCI-H226 was > 100 µM (inactive); in the test on NCI-H460 it was 71 µM (inactive); in the test with OVCAR-3, > 100 µM (inactive); with RPMI-8226, 20.7 µM (inactive); in the test on SK-MEL-2 it was 52.7 µM (inactive); with SK-OV-3 it was 48.6 µM (inactive). The GI50 in the test with SNB-75 is 35.2 µM (inactive); with SW-620, 54.8 µM (inactive); in the test on TK-10, > 100 µM (inactive); in the test with U-251 it was 57.3 µM (inactive); with UACC-257 it was 39.4 µM (inactive); with UACC-62, 29 µM (inactive).

`COC(=O)C1OC2(CCCC3CC32)O[C@H]1C(=O)OC` (stereo partly drawn): the GI50 is > 100 µM (inactive) with 786-0; > 100 µM (inactive) with A549; > 100 µM (inactive) in the test with CCRF-CEM; over 100 µM in the test on HCT-15; > 100 µM (inactive) in the test on HT-29; > 100 µM (inactive) in the test with M14. The GI50 is > 100 µM (inactive) in the test on MOLT-4; > 100 µM (inactive) in the test on NCI-H226; 90.4 µM (inactive) in the test on NCI-H460; > 100 µM (inactive) with OVCAR-3; > 100 µM (inactive) in the test with RPMI-8226; > 100 µM (inactive) with SK-MEL-2. The GI50 with SK-OV-3, with SNB-75, in the test on SW-620, in the test on TK-10, with U-251 and in the test on UACC-257 was > 100 µM (inactive) in each case. In addition, the GI50 with UACC-62 is > 100 µM (inactive).

In the case of `O=C1OC(=O)c2c1cc1cc3c(cc1c2-c1ccc2c(c1)OCO2)OCO3`, the GI50 is 22 µM (inactive) in the test with 786-0; > 100 µM (inactive) with A549; > 100 µM (inactive) in the test with CCRF-CEM; over 100 µM in the test on HCT-15; > 100 µM (inactive) in the test with HT-29; > 100 µM (inactive) in the test on M14. Besides, the GI50 in the test on MOLT-4, in the test with NCI-H226, in the test with NCI-H460, with OVCAR-3, with RPMI-8226 and in the test with SK-MEL-2 was > 100 µM (inactive) each time. Besides, the GI50 in the test with SK-MEL-5, in the test with SNB-75, with SW-620, in the test on TK-10, with U-251 and in the test with UACC-257 was > 100 µM (inactive) throughout. The GI50 with UACC-62 is > 100 µM (inactive).

On to `O=C(CC1(O)C(=O)Nc2c(Cl)cc(Cl)cc21)c1ccco1` (stereo not drawn), for which the GI50 with 786-0 was 23.7 µM (inactive); in the test on A549, > 100 µM (inactive); with CCRF-CEM it was 24.3 µM (inactive); with HCT-15 it was 40.5 µM; in the test on HT-29, 52.7 µM (inactive); with M14 it was 54 µM (inactive). The GI50 in the test on MOLT-4 was 15.4 µM (inactive); in the test on NCI-H226, 23.3 µM (inactive); in the test with NCI-H460, 65.6 µM (inactive); in the test with OVCAR-3, 21.2 µM (inactive); in the test on RPMI-8226, 23.1 µM (inactive); in the test on SK-MEL-2 it was 60.7 µM (inactive). Also, the GI50 in the test on SK-MEL-5 is 77.6 µM (inactive); in the test on SK-OV-3, > 100 µM (inactive); in the test with SNB-75, 29 µM (inactive); in the test on SW-620 it was 50.4 µM (inactive); in the test with TK-10, 88.1 µM (inactive); with U-251, > 100 µM (inactive). The GI50 in the test with UACC-257 is > 100 µM (inactive).

On to `Cn1c2ccccc2c2ccc3c(c21)C(=O)C(c1ccccc1)=CC3=O`, for which the GI50 in the test on 786-0 was 17.1 µM (inactive); in the test on A549, 34.4 µM (inactive); in the test with CCRF-CEM, 9.62 µM (inactive); with HCT-15 it was 7.03 µM; in the test on HT-29, 45.4 µM (inactive); in the test with M14 it was 39.4 µM (inactive). Further, the GI50 with MOLT-4 is 14.8 µM (inactive); with NCI-H226 it was 11.7 µM (inactive); in the test on NCI-H460, 9.27 µM (inactive); with OVCAR-3, 23.7 µM (inactive); in the test with RPMI-8226, 23.6 µM (inactive); in the test on SK-MEL-2 it was 22 µM (inactive). For the same molecule, the GI50 in the test on SK-MEL-5 was 22.8 µM (inactive); in the test with SK-OV-3 it was 81.3 µM (inactive); in the test on SNB-75, 9.31 µM (inactive); with TK-10 it was 43.8 µM (inactive); in the test with U-251 it was 36.8 µM (inactive); with UACC-257, 32.7 µM (inactive).

In the case of `O=c1ccn(C2OC(COC3CCCCO3)C(OC3CCCCO3)C2OC2CCCCO2)c(=O)n1-c1ccccc1` (stereo not drawn), the GI50 in the test on 786-0 is > 100 µM (inactive); in the test on A549 it was > 100 µM (inactive); in the test with CCRF-CEM it was > 100 µM (inactive); with HCT-15, over 100 µM; in the test with HT-29, > 100 µM (inactive); with M14 it was > 100 µM (inactive). For the same molecule, the GI50 in the test on MOLT-4, in the test on NCI-H226, with NCI-H460, in the test with OVCAR-3, in the test on RPMI-8226 and with SK-MEL-2 was > 100 µM (inactive) each time. Besides, the GI50 in the test on SK-MEL-5, in the test on SK-OV-3, with SNB-75, in the test with SW-620, with TK-10 and in the test with U-251 was > 100 µM (inactive) each time. For the same molecule, the GI50 with UACC-257 is > 100 µM (inactive).

Regarding `CO[C@H]1c2cccc3cccc(c23)[C@@H]1n1[nH]c(=O)n(C(C)(C)C)c1=O`, the GI50 was > 100 µM (inactive) with 786-0; > 100 µM (inactive) with A549; > 100 µM (inactive) in the test with CCRF-CEM; over 100 µM with HCT-15; > 100 µM (inactive) with HT-29; > 100 µM (inactive) in the test on M14. Also, the GI50 in the test with MOLT-4, in the test on NCI-H226, with NCI-H460, with OVCAR-3, in the test on RPMI-8226 and in the test on SK-MEL-2 was > 100 µM (inactive) throughout. The GI50 in the test on SK-OV-3, in the test with SNB-75, in the test with SW-620, in the test with TK-10, with U-251 and in the test with UACC-257 was > 100 µM (inactive) in each case. Besides, the GI50 in the test on UACC-62 was > 100 µM (inactive).

Take `Nc1cc(O)c2cc(/N=N/c3ccc(/N=N/c4ccc(/N=N/c5ccc6cc(S(=O)(=O)O)cc(S(=O)(=O)O)c6c5)c5ccccc45)c4cc(S(=O)(=O)O)ccc34)c(S(=O)(=O)O)cc2c1`: the GI50 in the test with A549 is 96.8 µM (inactive); in the test with CCRF-CEM, 61.5 µM (inactive); in the test with HCT-15, 42.4 µM; in the test on HT-29, > 90.2 µM (inactive); with MOLT-4 it was 64.7 µM (inactive); in the test with NCI-H226, 36.7 µM (inactive). The GI50 was > 100 µM (inactive) in the test on NCI-H460; 67.6 µM (inactive) in the test with OVCAR-3; > 100 µM (inactive) in the test with RPMI-8226; > 100 µM (inactive) in the test on SK-MEL-2; > 100 µM (inactive) with SK-MEL-5; > 100 µM (inactive) in the test on SK-OV-3. For the same molecule, the GI50 in the test on SNB-75 is 49.1 µM (inactive); in the test on SW-620, > 100 µM (inactive); in the test on U-251, > 100 µM (inactive); in the test with UACC-257, > 100 µM (inactive); with UACC-62, > 100 µM (inactive).

As for `O=C(Nc1ccn(C2CC(O)C(COC(c3ccccc3)(c3ccccc3)c3ccccc3)O2)c(=O)n1)c1ccccc1` (stereo not drawn), the GI50 was 1.98 µM (inactive) in the test with 786-0; 4.54 µM (inactive) in the test on A549; 2.79 µM (inactive) in the test on CCRF-CEM; 2.59 µM in the test on HCT-15; 1.71 µM (inactive) in the test on HT-29; 2.3 µM (inactive) in the test on M14. Also, the GI50 is 2.16 µM (inactive) with MOLT-4; 11 µM (inactive) in the test on NCI-H226; 2.03 µM (inactive) in the test on NCI-H460; 2.03 µM (inactive) in the test with OVCAR-3; 2.53 µM (inactive) with RPMI-8226; 2.82 µM (inactive) in the test with SK-MEL-2. For the same molecule, the GI50 is 2.33 µM (inactive) in the test on SK-MEL-5; 11.5 µM (inactive) with SK-OV-3; 4.66 µM (inactive) in the test with SNB-75; 2.58 µM (inactive) in the test on SW-620; 3.5 µM (inactive) in the test on U-251; 12.7 µM (inactive) with UACC-257. The GI50 in the test on UACC-62 was 5.98 µM (inactive).
